Assay results published in US20240376094A2, “SELECTIVE BCL-XL PROTAC COMPOUNDS AND METHODS OF USE” (Les Laboratoires Servier, priority 2021, published 2024).

Experiments:
Format in all cases: cell-based
COR-L105 = assay: CellTiter-Glo proliferation assay, COR-L105; conditions: Homo sapiens, COR-L105, 120 h, COR-L105, 5 days; for Emax: read-out: COR-L105 Span (max)
In short: (§1)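 Both lines grown in RPMI-1640 + 10% FBS. COR-L105 plated flat at 1,000 cells/well overnight; NCI-H1650 grown as spheroids, 3,000 cells/well, 72 h. Compounds at 0.508 nM-10 μM final for 5 days, 37° C. ATP read by CellTiter-Glo (3D version for spheroids); IC50 from variable-slope fit normalized to untreated cells.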

NCI-H1650 = assay: CellTiter-Glo 3D proliferation assay, NCI-H1650 spheroids; conditions: Homo sapiens, NCI-H1650, 120 h, 5 days; for Emax: read-out: NCI-H1650 Span (Amax)
In short: as §1

endogenous BCL-xL = biological target: T1, endogenous BCL-xL (Homo sapiens, UniProt Q07817); assay: Degradation of endogenous BCL-xL in COR-L105 (ProteinSimple Jess); conditions: COR-L105, 24 h, COR-L105, dose 300 nM, read-out: % BCL-xL vs. Untreated, COR-L105
T1 construct: endogenous in cells; host or cells: COR-L105 (ECACC No. 92031918); NCI-H1650 (ATCC No. CRL-5883)
In short: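 COR-L105 cells (2,000,000/well) treated 24 h at 37 °C with compound at 100–300 nM final, singlet, alongside untreated cells. RIPA lysates normalized by BCA to 1.5 mg/mL, then BCL-xL detected by capillary immunoassay (2–40 kDa Jess) comparing treated with untreated lysates.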

T1 sequence (Q07817 whole entry): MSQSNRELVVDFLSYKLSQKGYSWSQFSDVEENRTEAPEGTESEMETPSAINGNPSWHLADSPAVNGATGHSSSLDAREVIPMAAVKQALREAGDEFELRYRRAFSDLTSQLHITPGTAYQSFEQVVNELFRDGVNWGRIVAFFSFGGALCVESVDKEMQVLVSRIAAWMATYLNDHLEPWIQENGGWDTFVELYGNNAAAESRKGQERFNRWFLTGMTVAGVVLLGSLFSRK

Row | IC50 (NCI-H1650) | remaining activity at 0.3 µM (endogenous BCL-xL) | Structure (SMILES) | IC50 (COR-L105) | Emax (COR-L105) | Emax (NCI-H1650)
1 | 4.46 nM | 48.3% | Cc1ncsc1-c1ccc(CNC(=O)[C@@H]2C[C@@H](O)CN2C(=O)[C@@H](NC(=O)C2(F)CC2)C(C)(C)C)c(OCC(=O)NCCCCCN2CCN(CC#Cc3ccc(OCCCc4sc(N5CCCc6c5nnc(Nc5nc7ccccc7s5)c6C)nc4C(=O)O)c(F)c3)CC2)c1 [Example 53, 2-(3-(benzo[d]thiazol-2-ylamino)-4-methyl-6,7-dihydropyrido [2,3-c]pyridazin-8(5H)-yl)-5-(3-(2-fluoro-4-(3-(4-(5-(2-(2-(((2S,4R)-1-((S)-2-(1-fluorocyclopropane-1-carboxamido)-3,3-dimethylbutanoyl)-4-hydroxypyrrolidine-2-carboxamido)methyl)-5-(4-methylthiazol-5-yl)phenoxy)acetamido)pentyl)piperazin-1-yl)prop-1-yn-1-yl)phenoxy)propyl)thiazole-4-carboxylic acid] | 33.4 nM | 97.9% | 79.3%
2 | 5.75 nM | 47.9% | Cc1ncsc1-c1ccc(CNC(=O)[C@@H]2C[C@@H](O)CN2C(=O)[C@@H](NC(=O)C2(F)CC2)C(C)(C)C)c(OCC(=O)N(C)CCCCCN2CCN(CC#Cc3ccc(OCCCc4sc(N5CCCc6c5nnc(Nc5nc7ccccc7s5)c6C)nc4C(=O)O)c(F)c3)CC2)c1 [Example 54, 2-(3-(benzo[d]thiazol-2-ylamino)-4-methyl-6,7-dihydropyrido [2,3-c]pyridazin-8(5H)-yl)-5-(3-(2-fluoro-4-(3-(4-(5-(2-(2-(((2S,4R)-1-((S)-2-(1-fluorocyclopropane-1-carboxamido)-3,3-dimethylbutanoyl)-4-hydroxypyrrolidine-2-carboxamido)methyl)-5-(4-methylthiazol-5-yl)phenoxy)-N-methylacetamido)pentyl)piperazin-1-yl)prop-1-yn-1-yl)phenoxy)propyl)thiazole-4-carboxylic acid] | 31.6 nM | 91.9% | 76.7%
